The values that follow come from PMC8480759, “Inhibitors of histone deacetylase 6 based on a novel 3-hydroxy-isoxazole zinc binding group” (Journal of Enzyme Inhibition and Medicinal Chemistry, 2021).

The target of the test is T1, HDAC6 (Homo sapiens, UniProt Q9UBN7).
T1 sequence (Q9UBN7 1-1215): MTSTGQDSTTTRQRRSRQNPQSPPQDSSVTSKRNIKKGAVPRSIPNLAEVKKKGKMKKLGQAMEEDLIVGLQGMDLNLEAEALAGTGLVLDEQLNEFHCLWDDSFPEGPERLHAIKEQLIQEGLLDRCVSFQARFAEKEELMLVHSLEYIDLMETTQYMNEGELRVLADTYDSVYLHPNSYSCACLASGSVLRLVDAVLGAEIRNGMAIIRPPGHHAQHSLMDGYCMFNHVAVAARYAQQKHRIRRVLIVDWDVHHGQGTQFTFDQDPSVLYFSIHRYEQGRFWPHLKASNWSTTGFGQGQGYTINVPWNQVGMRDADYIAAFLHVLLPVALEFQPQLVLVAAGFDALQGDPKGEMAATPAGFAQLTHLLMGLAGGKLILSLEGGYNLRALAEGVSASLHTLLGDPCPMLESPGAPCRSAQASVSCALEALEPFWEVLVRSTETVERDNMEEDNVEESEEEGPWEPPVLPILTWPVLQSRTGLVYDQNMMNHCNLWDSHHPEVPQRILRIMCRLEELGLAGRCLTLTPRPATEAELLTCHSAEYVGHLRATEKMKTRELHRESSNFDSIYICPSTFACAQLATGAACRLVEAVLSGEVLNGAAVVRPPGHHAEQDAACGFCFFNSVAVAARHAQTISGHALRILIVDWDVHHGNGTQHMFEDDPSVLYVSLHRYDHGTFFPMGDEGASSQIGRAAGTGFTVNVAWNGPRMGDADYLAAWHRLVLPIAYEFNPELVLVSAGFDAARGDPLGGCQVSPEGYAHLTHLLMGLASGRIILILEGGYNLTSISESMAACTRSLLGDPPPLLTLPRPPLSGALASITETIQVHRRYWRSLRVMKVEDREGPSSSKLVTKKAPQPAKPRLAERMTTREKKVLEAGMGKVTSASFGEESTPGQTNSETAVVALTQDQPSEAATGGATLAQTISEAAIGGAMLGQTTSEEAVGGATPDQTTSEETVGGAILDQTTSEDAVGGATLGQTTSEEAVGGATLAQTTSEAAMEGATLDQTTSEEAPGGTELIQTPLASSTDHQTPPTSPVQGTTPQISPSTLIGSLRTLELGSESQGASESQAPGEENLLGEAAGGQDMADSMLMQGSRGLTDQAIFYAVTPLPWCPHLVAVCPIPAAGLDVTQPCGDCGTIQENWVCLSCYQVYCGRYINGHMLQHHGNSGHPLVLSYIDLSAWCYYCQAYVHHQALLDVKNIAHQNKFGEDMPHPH
The experiment in a line: In vitro HDAC6 fluorogenic enzymatic assay. The class given is biochemical. Also on record: purchased BPS Bioscience #50076 (Fluorogenic Assay Kit). The note with it: recombinant human HDAC6; dose-response 300 µM to 135 nM.

Broadly, the IC50 is the midpoint of a concentration-inhibition curve. As to `Oc1cc(-c2ccc3c(c2)OCO3)on1` [Compound 25], the IC50 stood at 1500 nM.

`Oc1cc(-c2ccc(NCc3ccccc3)cc2)on1` [Compound 23]: the IC50 came to 700 nM.
